Reference: patent US9155751B2, “Solution for tissue adhesion prevention and method for tissue adhesion prevention” (THE UNIVERSITY OF TOKYO, priority 2005, dated 2015)
“And” between values parts separate entries of the source, which are not always exact repeats. Equal values may be shown once. “Also recorded” adds a separate entry of the source.

Columns and labels:
HepG2 cells = assay: HepG2 cell survival after air-dry (neutral red absorbance); format: cell-based, human; settings: for cell survival rate: activated with sample solution 37 degrees C 1 hour, air-dry 3 minutes, control plate without air-dry = 100%; for cell survival rate in control plates (effect of each reagent on cells): air-dry not performed, control plate for PBS (+) = 100%; for cell protection effect: plates air-dried for 3 minutes
Procedure: As cells, HepG2 cells (human hepatoma-derived cell lines) were used.
For all reagents other than HepG2 cells, AA-2G, trehalose, DMEM media, FCS, neutral red, reagent grade chemicals were used. In addition, as sample solution in which HepG2 cells were activated, 4 kinds of solution; PBS (+) solution, 2.5 mM AA-2G solution, 132 mM trehalose solution, 2.5 mM AA-2G+132 mM trehalose mixed solution were prepared.
A reagent ascorbic acid-2-glucoside (AA2G; Hayashihara Biochemical Labs., Inc.) was dissolved in distilled water to obtain 2.5 mM AA-2G solution. And a highly purified hydrated crystal trehalose in powder (Reagent trehalose; Hayashihara Biochemical Labs., Inc.) was dissolved in distilled water to obtain 132 mM trehalose solution. The reagents ascorbic acid-2-glucoside and the highly purified hydrated crystal trehalose in powder were dissolved in distilled water to obtain 2.5 mM AA-2G+132 mM trehalose mixed solution. Then, pH and osmolarity of these 4 kinds of sample solutions were adjusted. Adjustment of osmolarity of 2.5 mM AA-2G solution, 132 mM trehalose solution, 2.5 mM AA-2G+132 mM trehalose mixed solution was performed by adjusting with sodium chloride of PBS (+) to be isotonic.
The pH and osmolarity of each sample after adjustment were as follows; pH 7.2 and 279 mOsm for PBS (+) solution, pH 6.8 and 265 mOsm for 2.5 mM AA-2G solution, pH 7.2 and 283 mOsm for 132 mM trehalose solution and pH 7.0 and 282 mOsm for 2.5 mM AA-2G+132 mM trehalose mixed solution.
Then, HepG2 cells were seeded with 4×10^4 cells/well each to four 12-well plates, and incubated in DMEM media (Nissui Pharmaceutical Co., Ltd) containing 10% FCS (Gibco) for 4 days. Then the DMEM media containing 10% FCS were replaced with 4 kinds of sample solutions; PBS (+) solution, 2.5 mM AA-2G solution, 132 mM trehalose solution, 2.5 mM AA-2G+132 mM trehalose mixed solution, and activated at 37 degrees C. for 1 hour.
Two control plates and two test plates were prepared for cells activated with 4 kinds of sample solutions, respectively. For each two test plates, one plate was air-dried for 5 minutes and other plate was air-dried for 3 minutes. The two control plates were not air-dried.
Then, cells of each plate was replaced with no serum DMEM media and incubated at 37 degrees C. for 1 hour. After replacing with 0.02% neutral red (Wako Pure Chemical Industries, Ltd, hereinafter referred to NR), they were activated at 37 degrees C. for 40 minutes. After removal of NR solution and addition of PBS (+), they were left to stand at 37 degrees C. for 40 minutes, PBS (+) was removed and they were air-dried for 5 minutes. They were added NR extracts and left to stand at 37 degrees C. for 10 minutes, then each sample was distributed over 96-well plate and the absorbance at the wavelength of 570 nm was measured.
The absorbance of the control plates to which air-dry was not performed was considered as cell survival rate of 100%, and the cell survival rate of the test plates to which air-dry was performed for 3 minutes was calculated. The results are shown in the graph indicating changes in cell survival rate by air-dry in FIG. 1.
Also, the cell survival rates of control plates for each sample solution to which air-dry was not performed were calculated. The results are shown in the graph indicating the effect of each reagent on cells in FIG. 2.

[1] = tested on: abdominal adhesion model using rabbits; assay: Rabbit abdominal adhesion model by desiccating intestine surface during abdominal surgery (Example 3); format: in vivo, New Zealand White rabbits; design: key to Adhesion sites: greater omentum - rectum / Adhesion sites: greater omentum - stomach / Adhesion sites: greater omentum - small intestine / Adhesion sites: small intestine - rectum / Adhesion sites: abdominal wall - bladder / Adhesion sites: abdominal wall - fat / Adhesion sites: colon-fat / Adhesion sites: jejunum - abdominal wall / Adhesion sites: cecum - colon: non-adhesion: −; Adhesions of mild degree (abruption enabled): +; Adhesions of severe degree (abruption enabled): ++; Score-Total: scale not given here
Procedure: In this example, abdominal adhesion model was prepared using rabbits by desiccating surface of intestines during abdominal surgery, and the preventive effect on intestine adhesion by trehalose was discussed.
As trehalose, powder trehalose (Reagent trehalose; Hayashihara Biochemical Labs., Inc.) were dissolved in sterile distilled water of 250 mL as 7% solution, sterilized by filtration with filter (Millex; Millpore Co., Bed ford) and poured to sterile container and stored at room temperature.
(§1) As test animals, 20 female New Zealand White rabbits weighing 2.6 to 3.2 kg aged of 14 weeks (Std:NZW, Japan SLC, Inc., Shizuoka) were used. The rabbits were kept in animal laboratory (room temperature of 24+/−1 degrees C., humidity of 30 to 70%) in The University of Tokyo, Graduate School of Agricultural and Life Sciences Veterinary Medical Center. The rabbits were acclimatized for 1 week after purchase, and during this period blood test (complete blood count, BUN, Cre, ALT, ALP) and general x-ray test were performed to confirm that abnormality was not present. The experiment of this example was performed according to the Manual of animal experiment of The University of Tokyo.
(§2) The experiment of this example was performed as follows.
(§3) As anesthesia, 5 mg/kg of ketamine (KETALAL 50; Sankyo Lifetech Co., Ltd., Tokyo) and 0.1 mg/kg of medetomidine (DOMITOL; Meiji Seiyaku Ca, Ltd., Tokyo) were intramuscularly injected as preoperative medication, and after intubation maintained with isoflurane (SOFLU Dainippon Pharmaceutical Co., Ltd., Osaka). Before operation, 10 mg/kg of enrofloxacin (BAYTRIL; Bayer Medical Ltd., Tokyo) was subcutaneously administered as antibiotics, and during operation 10 mL/kg/hr of lactated Ringer's solution (FUSO; Fuso Pharmaceutical Industries, Ltd., Osaka) was intravenously administered. After operation, single dose of 20 μg/kg of buprenorphine (LEPETAN; Otsuka Pharmaceutical Co., Ltd., Tokyo) as analgesics was subcutaneously administered.
During anesthesia, ECG, ETCO2 and SpO2 were monitored and maintained within their normal variations.
For the 20 rabbits, after disinfection of operative field, abdominal median incision was performed and intestines were exposed as far as possible and serum was wiped with gauze. Total ovariohysterectomy performed according to given method. Four section of ovarion arteries and veins were severed after being ligated with 4-0 mono filament polyglyconate suture (MAXON; Syneture Co., Ltd., Connecticut). Also, uterovaginal stump were sutured with 5-0 mono filament polyglyconate suture (MAXON; Syneture Co., Ltd., Connecticut), the 3-0 mono filament polyglyconate suture (MAXON; Syneture CO., Ltd., Connecticut) was used for closure of abdominal wall, and the 4-0 mono filament polyglyconate suture (MAXON; Syneture Co., Ltd., Connecticut) was used for subcutaneous tissues and stapler (ManiplerAZ-35W; Mani Inc., Tochigi) was used for skin suture.
Ten rabbits among the twenty rabbits were randomized to the control group, and the other ten rabbits were classified into the trehalose group.
The control group (10 rabbits) was left desiccated. The time period of laparotomy was 60 minutes.
For the trehalose group, trehalose solution was sprayed over the whole abdominal cavities every 15 minutes (0 minutes, 15 minutes, 30 minutes, 45 minutes, 60 minutes after starting the operation). The time period of laparotomy was 60 minutes. After operation, general condition and wounds were observed and rabbits were euthanized by excessive administration of pentobarbital two weeks after the operations.
The adhesion status in peritoneal cavity was macroscopically observed and recorded as well as tissues of adhesion sites were removed as pathohistological test materials and fixed in formalin. The clinical findings after 2 weeks and the macroscopic findings of adhesion status after laparotomy of each case are shown in Table 2.

[2] = tested on: abdominal adhesion model using rabbits; assay: Rabbit abdominal adhesion model by desiccating intestine surface during abdominal surgery (Example 2); format: in vivo, New Zealand White rabbits; settings: for Clinical findings: 2% trehalose solution sprayed on whole intestines several times during laparotomy
Procedure: In this example, abdominal adhesion model was prepared using rabbits by desiccating surface of intestines during abdominal surgery, and the preventive effect of intestine adhesion by trehalose was discussed.
as §1, with “As trehalose, powder trehalose (Reagent trehalose; Hayashihara Biochemical Labs., Inc.) and ^+NaCl were dissolved in sterile distilled water of 250 mL as 2%; solution, sterilized by filtration with filter (Millex; Millpore Co., Bedford) and poured to sterile container and stored at room temperature. As” for “As”, “five” for “20”, “2.85” for “2.6”, “[…])” for “70%)”, “of” for “of The”
as §2
as §3, with “Seiyaku Co.,” for “Seiyaku Ca,”, “isoflurane (ISOFLU;” for “isoflurane (SOFLU”, “intravenously administered,” for “intravenously administered.”, “administered. During anesthesia, ECG, ETCO2 and SpO2 were monitored and maintained within their normal variations.” for “administered.”
Three rabbits among the five rabbits were randomized to the control group, and the other two rabbits were classified into the trehalose group. For the five rabbits, after disinfection of operative field, abdominal median incision was performed and intestines were exposed as far as possible and serum was wiped with gauze. For control group (three rabbits) they were left desiccated and for trehalose group (two rabbits) whole intestines were sprayed with trehalose for several times. During this period, ovariohysterectomy was performed according to given method. The time period of laparotomy was 30 to 60 minutes for both groups. The 3-0 monofilament nylon fiber (Bear surgical suture; Bear Medic Corporation, Chiba) was used for ovariohysterectomy and closure of abdominal wall, and the 4-0 monofilament polyglyconate fiber (MAXON; Syneture Co., Ltd., Connecticut) was used for subcutaneous tissues and stapler (Manipler AZ-35W; Mani Inc., Tochigi) was used for skin suture. After operation, general condition and wounds were observed and they were killed by overdose of pentobarbital after 2 weeks. The adhesion status in peritoneal cavity was macroscopically observed and recorded as well as tissues of adhesion sites were removed as pathohistological test material and fixed in formalin.
The clinical findings after 2 weeks and the macroscopic findings of adhesion status after laparotomy of each case are shown in Table 1.

[3] = 7% trehalose solution sprayed every 15 minutes, 60 min laparotomy, 2 weeks after, individual rabbits No. 1-10
[4] = 2% trehalose solution sprayed on whole intestines, macroscopic, 2 weeks after operation, individual rabbits

## O=C1O[C@H]([C@@H](O)CO)C(O)=C1O[C@H]1O[C@H](CO)[C@@H](O)[C@H](O)[C@H]1O [2.5 mM AA-2G solution, ascorbic acid-2-glucoside]
HepG2 cells
  cell survival rate: 61.8%
  cell survival rate in control plates (effect of each reagent on cells): 101.6% and 101.5%
  cell protection effect: the cell protection effect was not observed

## OC[C@H]1O[C@H](O[C@H]2O[C@H](CO)[C@@H](O)[C@H](O)[C@H]2O)[C@H](O)[C@@H](O)[C@@H]1O [Trehalose, trehalose]
[1]; 7% trehalose solution spray, 10 rabbits, control 6 of 10
  cases with adhesions of mild and severe degree between abdominal organs: 2 of 10
[1]; 7% trehalose solution spray, 10 rabbits, control group +16
  adhesion scores between organs (group): +3
[1]; [3]
  Adhesion sites: abdominal wall - bladder: −
  Adhesion sites: abdominal wall - fat: −
  Adhesion sites: cecum - colon: + and − (9×)
  Adhesion sites: colon-fat: −
  Adhesion sites: greater omentum - rectum: −
  Adhesion sites: greater omentum - small intestine: −
  Adhesion sites: greater omentum - stomach: −
  Adhesion sites: jejunum - abdominal wall: −
  Adhesion sites: small intestine - rectum: − (9×) and ++
[1]; adhesion score per rabbit, 7% trehalose solution spray, individual rabbits No. 1-10
  Score-Total: 1 and 0 (8×) and 2
[1]; spray of 7% trehalose solution
  prevention of abdominal adhesion due to desiccation (conclusion): can obviously prevent and reduce adhesions
[1]; trehalose group versus control group adhesion score, Wilcoxon rank-sum test p<0.05
  prevention ratio: 81%
[2]; 2 weeks after operation, individual rabbits
  Clinical findings: Partial dehiscence; also recorded: No abnormal findings
[2]; 2 weeks after operation, individual rabbits, listed as trehalose
  Clinical findings: a part of skin suture site was removed and showed ulcer in 1 case
[2]; [4]
  Findings after laparotomy: Adhesion of stump of uterus: Present
  Findings after laparotomy: Adhesion sites in intestines: 2 sites of adhesion and No significant
[2]; 2% trehalose solution sprayed on whole intestines, macroscopic, 2 weeks after operation, individual rabbits, listed as trehalose
  Findings after laparotomy: Adhesion sites in intestines: 2 sites of mild adhesion were suspected in 1 rabbit and no significant adhesion was macroscopically observed
[2]; spray of 2% trehalose solution
  prevention of abdominal adhesion due to desiccation (conclusion): would be effective for prevention of abdominal adhesion due to desiccation
HepG2 cells
  cell survival rate: 70.7%
  cell protection effect: the cell protection effect was observed
HepG2 cells; listed as 132 mM trehalose solution
  cell survival rate in control plates (effect of each reagent on cells): 97.6% and 97.7%
